System: 521955-158-R2-J5-PDC complex spheroid growth
Experiment: Anticancer human tumor 521955-158-R2-J5-PDC patient-derived pancreatic carcinoma cell line growth inhibition [AhR]
Details: for IC50: curve of first compound; for viability, T/C: stronger effect = lower value; active = viability on the fitted dose curve at most 10% of control; inactive = the rest
Summary of the method: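 Complex tumor spheroids co-cultured with HUVEC and human MSC stroma; AhR antagonists tested in combination with standard-of-care and investigational agents. Top concentration at or near clinical Cmax (else 10 microM), half-log dilutions; growth expressed as percent test/control.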
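For viability, T/C in this document: spheroids mix tumor cells with HUVEC endothelium and human MSC stroma; luminescence taken as viability surrogate after a week of drug exposure.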

CC1(C)CCC(CN2CCN(c3ccc(C(=O)NS(=O)(=O)c4ccc(NCC5CCOCC5)c([N+](=O)[O-])c4)c(Oc4cnc5[nH]ccc5c4)c3)CC2)=C(c2ccc(Cl)cc2)C1 + Cc1ccccc1N=Nc1ccc(NC(=O)c2ccnn2C)c(C)c1
inactive: viability, T/C (second compound 0.1 µM, first compound 0.0316 µM) 114% | viability, T/C (second compound 0.1 µM, first compound 0.1 µM) 140% | viability, T/C (second compound 0.1 µM, first compound 0.316 µM) 96.5% | viability, T/C (second compound 0.1 µM, first compound 1 µM) 102% | viability, T/C (second compound 0.1 µM, first compound 3.16 µM) 104% | viability, T/C (second compound 0.1 µM, first compound 10 µM) 103% | viability, T/C (second compound 0.316 µM, first compound 0.0316 µM) 110% | viability, T/C (second compound 0.316 µM, first compound 0.1 µM) 99.9% | viability, T/C (second compound 0.316 µM, first compound 0.316 µM) 116% | viability, T/C (second compound 0.316 µM, first compound 1 µM) 108% | viability, T/C (second compound 0.316 µM, first compound 3.16 µM) 107% | viability, T/C (second compound 0.316 µM, first compound 10 µM) 96% | viability, T/C (second compound 1 µM, first compound 0.0316 µM) 120% | viability, T/C (second compound 1 µM, first compound 0.1 µM) 144% | viability, T/C (second compound 1 µM, first compound 0.316 µM) 133% | viability, T/C (second compound 1 µM, first compound 1 µM) 116% | viability, T/C (second compound 1 µM, first compound 3.16 µM) 98.8% | viability, T/C (second compound 1 µM, first compound 10 µM) 94.5% | viability, T/C (second compound 3.16 µM, first compound 0.0316 µM) 135% | viability, T/C (second compound 3.16 µM, first compound 0.1 µM) 155% | viability, T/C (second compound 3.16 µM, first compound 0.316 µM) 165% | viability, T/C (second compound 3.16 µM, first compound 1 µM) 119% | viability, T/C (second compound 3.16 µM, first compound 3.16 µM) 130% | viability, T/C (second compound 3.16 µM, first compound 10 µM) 84.6% | viability, T/C (second compound 10 µM, first compound 0.0316 µM) 166% | viability, T/C (second compound 10 µM, first compound 0.1 µM) 162% | viability, T/C (second compound 10 µM, first compound 0.316 µM) 158% | viability, T/C (second compound 10 µM, first compound 1 µM) 151% | viability, T/C (second compound 10 µM, first compound 3.16 µM) 108% | viability, T/C (second compound 10 µM, first compound 10 µM) 72.6%
> 10 µM: IC50 (second compound 0.1 µM) | IC50 (second compound 0.316 µM) | IC50 (second compound 1 µM) | IC50 (second compound 3.16 µM) | IC50 (second compound 10 µM)

CCN(c1cc(-c2ccc(CN3CCOCC3)cc2)cc(C(=O)NCc2c(C)cc(C)[nH]c2=O)c1C)C1CCOCC1 + Cc1ccccc1N=Nc1ccc(NC(=O)c2ccnn2C)c(C)c1
> 3 µM: IC50 (second compound 0.1 µM) | IC50 (second compound 0.316 µM) | IC50 (second compound 1 µM) | IC50 (second compound 3.16 µM) | IC50 (second compound 10 µM)
inactive: viability, T/C (second compound 0.1 µM, first compound 0.00949 µM) 123% | viability, T/C (second compound 0.1 µM, first compound 0.03 µM) 110% | viability, T/C (second compound 0.1 µM, first compound 0.0949 µM) 103% | viability, T/C (second compound 0.1 µM, first compound 0.3 µM) 89.1% | viability, T/C (second compound 0.1 µM, first compound 0.949 µM) 74.4% | viability, T/C (second compound 0.1 µM, first compound 3 µM) 79.9% | viability, T/C (second compound 0.316 µM, first compound 0.00949 µM) 111% | viability, T/C (second compound 0.316 µM, first compound 0.03 µM) 106% | viability, T/C (second compound 0.316 µM, first compound 0.0949 µM) 110% | viability, T/C (second compound 0.316 µM, first compound 0.3 µM) 83.1% | viability, T/C (second compound 0.316 µM, first compound 0.949 µM) 76.6% | viability, T/C (second compound 0.316 µM, first compound 3 µM) 84.3% | viability, T/C (second compound 1 µM, first compound 0.00949 µM) 96.6% | viability, T/C (second compound 1 µM, first compound 0.03 µM) 113% | viability, T/C (second compound 1 µM, first compound 0.0949 µM) 97.2% | viability, T/C (second compound 1 µM, first compound 0.3 µM) 83.6% | viability, T/C (second compound 1 µM, first compound 0.949 µM) 95.7% | viability, T/C (second compound 1 µM, first compound 3 µM) 87.6% | viability, T/C (second compound 3.16 µM, first compound 0.00949 µM) 126% | viability, T/C (second compound 3.16 µM, first compound 0.03 µM) 128% | viability, T/C (second compound 3.16 µM, first compound 0.0949 µM) 128% | viability, T/C (second compound 3.16 µM, first compound 0.3 µM) 125% | viability, T/C (second compound 3.16 µM, first compound 0.949 µM) 102% | viability, T/C (second compound 3.16 µM, first compound 3 µM) 112% | viability, T/C (second compound 10 µM, first compound 0.00949 µM) 164% | viability, T/C (second compound 10 µM, first compound 0.03 µM) 153% | viability, T/C (second compound 10 µM, first compound 0.0949 µM) 166% | viability, T/C (second compound 10 µM, first compound 0.3 µM) 150% | viability, T/C (second compound 10 µM, first compound 0.949 µM) 126% | viability, T/C (second compound 10 µM, first compound 3 µM) 122%

Reference: PubChem BioAssay AID1918998 (Molecular Pharmacology Branch, DTP, NCI, 2023)
